Reference: US20230026611A1, “ARYL HETEROCYCLIC COMPOUNDS AS Kv1.3 POTASSIUM SHAKER CHANNEL BLOCKERS” (D. E. Shaw Research, LLC, priority 2019, published 2023)

These compounds were tested against T1, Kv1.3 potassium channel (Homo sapiens, UniProt P22001) (assay: Kv1.3 potassium channel blocker activity, automated whole-cell patch clamp (Patchliner) in CHO-K1 cells stably expressing Kv1.3). Conditions: not given.
T1 construct: expressed in transfected cells
Type: cell-based
Method: Example 82. Evaluation of Kv1.3 potassium channel blocker activities
This assay is used to evaluate the disclosed compounds' activities as Kv1.3 potassium channel blockers.
CHO-K1 cells stably expressing Kv1.3 were grown in DMEM containing 10% heat-inactivated FBS, 1 mM sodium pyruvate, 2 mM L-glutamine, and G418 (500 μg/ml).
All compounds were dissolved in DMSO at 30 mM.
The currents were evoked by applying 100 ms depolarizing pulses from −90 mV (holding potential) to +40 mV were applied with 0.1 Hz frequency. […] 10-second breaks were used between pulse trains (see Table A below).
Data were sampled at 10 kHz without filtering. Passive leak currents were subtracted online using a P/4 procedure (HEKA Elektronik Dr. Schulze GmbH). […] Total compound incubation time before the next pulse train was not longer than 10 seconds. Peak current inhibition was observed during compound equilibration.

T1 sequence (P22001 whole entry): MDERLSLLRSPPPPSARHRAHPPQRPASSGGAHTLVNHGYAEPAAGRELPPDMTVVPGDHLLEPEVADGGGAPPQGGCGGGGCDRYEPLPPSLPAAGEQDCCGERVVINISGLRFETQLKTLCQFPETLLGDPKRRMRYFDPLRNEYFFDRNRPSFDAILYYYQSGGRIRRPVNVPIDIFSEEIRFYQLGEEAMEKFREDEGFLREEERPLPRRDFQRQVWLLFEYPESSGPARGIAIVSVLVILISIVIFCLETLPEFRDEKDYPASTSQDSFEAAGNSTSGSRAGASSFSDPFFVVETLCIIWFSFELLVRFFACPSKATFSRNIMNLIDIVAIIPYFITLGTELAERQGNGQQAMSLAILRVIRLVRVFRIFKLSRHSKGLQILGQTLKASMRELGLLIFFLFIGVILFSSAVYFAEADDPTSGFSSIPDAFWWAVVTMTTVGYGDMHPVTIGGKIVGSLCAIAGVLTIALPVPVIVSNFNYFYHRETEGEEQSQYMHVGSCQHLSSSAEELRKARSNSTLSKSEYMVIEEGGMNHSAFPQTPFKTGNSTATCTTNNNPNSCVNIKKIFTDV

Row | Structure (SMILES) | IC50 [µM]
1 | Oc1cc(Cl)c(Cl)cc1[C@@H]1C[C@H]2CC[C@@H](C1)N2 (single isomer, unassigned; isomer 1) [Compound 15, 2-[8-azabicyclo[3.2.1]octan-3-yl]-4,5-dichlorophenol isomer 1] | < 10
2 | Oc1cc(Cl)c(Cl)cc1[C@H]1C[C@H]2CC[C@@H](C1)N2 (single isomer, unassigned; isomer 2) [Compound 11, 2-[8-azabicyclo[3.2.1]octan-3-yl]-4,5-dichlorophenol isomer 2] | < 10
3 | N#CC1(c2cc(Cl)c(Cl)cc2O)CCNCC1 [Compound 13, 4-(4,5-dichloro-2-hydroxyphenyl)piperidine-4-carbonitrile] | < 10
4 | Oc1cc(Cl)c(Cl)cc1C1=CC2CCC(C1)N2 (centres unmarked) [Compound 17, 2-[8-azabicyclo[3.2.1]oct-2-en-3-yl]-4,5-dichlorophenol] | < 10

Same assay, conditions: CHO-K1 cells stably expressing Kv1.3; patch clamp, current inhibition; read-out: Kv1.3 IC50

Row | Structure (SMILES) | IC50 [µM]
5 | O=C(NC1CNC1)[C@@H]1CC[C@H](c2c(O)ccc(Cl)c2Cl)N1 (single isomer, unassigned) [Compound 119] | < 10
6 | O=C(NC1CNC1)[C@@H]1CC[C@@H](c2c(O)ccc(Cl)c2Cl)N1 (single isomer, unassigned) [Compound 120] | < 10
7 | O=C(NC1CNC1)C1CN[C@@H](c2c(O)ccc(Cl)c2Cl)C1 (single isomer, unassigned) [Compound 121] | < 1
8 | O=C(NC1CNC1)[C@@H]1CN[C@H](c2c(O)ccc(Cl)c2Cl)C1 (single isomer, unassigned) [Compound 123] | < 10
9 | O=C(NC1CNC1)[C@H]1CN[C@H](c2c(O)ccc(Cl)c2Cl)C1 (single isomer, unassigned) [Compound 124] | < 1
10 | NC(=O)C1CNC[C@H]1c1cc(Cl)c(Cl)cc1O (stereo in doubt) [Compound 64, (3R,4R)-rel-4-(4,5-dichloro-2-hydroxyphenyl)pyrrolidine-3-carboxamide] | < 10
11 | CC1(c2cc(Cl)c(Cl)cc2O)CCNCC1 [Compound 1, 4,5-dichloro-2-(4-methylpiperidin-4-yl)phenol] | < 10
12 | CC(=O)N1CCC(c2cc(Cl)c(Cl)cc2O)CC1 [Compound 10, 1-[4-(4,5-dichloro-2-hydroxyphenyl)piperidin-1-yl]ethan-1-one] | < 10
13 | Oc1cc(Cl)c(Cl)cc1C1=CCCNC1 [Compound 19, 4,5-dichloro-2-(1,2,3,6-tetrahydropyridin-5-yl)phenol] | < 10
14 | Oc1cc(Cl)c(Cl)cc1C1=CCNC1 [Compound 20, 4,5-dichloro-2-(2,5-dihydro-1H-pyrrol-3-yl)phenol] | < 10
15 | Oc1cc(Cl)c(Cl)cc1C1CNC1 [Compound 22, 2-(azetidin-3-yl)-4,5-dichlorophenol] | < 10
16 | OCC1(c2cc(Cl)c(Cl)cc2O)CCNCC1 [Compound 26, 4,5-dichloro-2-[4-(hydroxymethyl)piperidin-4-yl]phenol] | < 10
17 | Oc1cc(C(F)(F)F)c(Cl)cc1C1CCNCC1 [Compound 29, 4-chloro-2-(piperidin-4-yl)-5-(trifluoromethyl)phenol] | < 10
18 | NC1(CO)CCN(c2cc(Cl)c(Cl)cc2O)CC1 [Compound 33, 2-[4-amino-4-(hydroxymethyl)piperidin-1-yl]-4,5-dichlorophenol] | < 10
19 | Oc1cc(Cl)c(Cl)cc1N1CCCNCC1 [Compound 37, 4,5-dichloro-2-(1,4-diazepan-1-yl)phenol] | < 10
20 | Oc1cc(C(F)F)c(Cl)cc1C1CCNCC1 [Compound 41, 4-chloro-5-(difluoromethyl)-2-(piperidin-4-yl)phenol] | < 10
21 | Oc1cc(Cl)c(Cl)c(Cl)c1C1=CCNCC1 [Compound 46, 3,4,5-trichloro-2-(1,2,3,6-tetrahydropyridin-4-yl)phenol] | < 10
22 | Oc1cc(Cl)c(Cl)cc1C1CCNCC1n1ccnn1 (centres unmarked) [Compound 62, 4,5-dichloro-2-[3-(1H-1,2,3-triazol-1-yl)piperidin-4-yl]phenol] | < 10
23 | Oc1cccc(Cl)c1C1CCNCC1 [Compound 66, 3-chloro-2-(piperidin-4-yl)phenol] | < 10
